Laboratory results from patent US9937250B2, “Immunogenic tumor associated stromal cell antigen peptides and methods of their use” (University of Pittsburgh—Of the Commonwealth System of …, priority 2011, dated 2018).

Columns and labels:
[1] = system: MC38 colon carcinoma; assay: MC38 protection (prophylactic vaccination) model; assay type: in vivo, HHD mice
Text: FIGS. 9A-9B show a series of graphs illustrating induction of specific/protective CD8^+ T cells reactive against TASA as a consequence of DC/peptide-based vaccination. In FIG. 9A, HHD mice (five animals/cohort) were vaccinated twice (d-14, d-7) subcutaneously with PBS or with isologous DC.IL12 pulsed with PBS or synthetic peptides (Table 6) derived from the indicated TASA. In cases where more than 1 peptide was identified for a given target antigen, an equimolar pool of the indicated peptides (each 10 μM) was pulsed onto DC.IL12 and used for vaccination in the relevant cohort. One week after the second immunization, spleens were harvested and splenic CD8^+ T cells isolated using MACS-beads (Miltenyi). T cells were stimulated in vitro for 48 h using the HLA-A2^+ T2 cell line pulsed with relevant TASA vs. irrelevant HIV-nef190-198 ([…]; ref. 24) peptides. Cell-free supernatants were then recovered and IFN-γ levels by ELISA. Data are reported as mean+/−SD for triplicate ELISA determinations, and are representative of 3 independent experiments performed. *p<0.05 vs. HIV-nef control peptide responses. In FIG. 9B, HHD mice were vaccinated twice (days −14 and −7; right flank) subcutaneously with PBS or with isologous DC.IL12 pulsed with PBS or synthetic TASA peptides as indicated in FIG. 1A. In cases where more than 1 peptide is identified for a given target antigen, an equimolar pool of the indicated peptides (each 10 μM) was pulsed onto DC.IL12 and used for vaccination in the relevant cohort. One week after the booster vaccine (i.e. day zero), animals were challenged subcutaneously on their left flank with 2×10^6 MC38 colon carcinoma cells. Tumor growth was then monitored every 3-4 days through day 24. All data represent mean tumor area (in mm^2)+/−SD determined from 5 mice/cohort, and are representative of three independent experiments performed. *p<0.05 versus DC only on the indicated days.
Vaccine Experiments. For prophylactic experiments, HHD mice were immunized subcutaneously on the right flank with 100 μl PBS or PBS containing 10^6 syngenic DC.IL12 cells that had been untreated or pre-pulsed for 4 h at 37° C. with 10 μM synthetic peptide(s). Immunizations occurred on days −14 and −7, with mice subsequently receiving injections of MC38 (2×10^6) tumor cells in the left flank on d0. In all cases, treatment groups contained 5 mice per cohort. For analysis of tumor cellular composition in repeat experiments, MC38 tumors were isolated by surgical resection 10 days after tumor inoculation and prepared for fluorescence imaging, as described below. […] Mice were then untreated or treated with control, syngenic DC.IL12 or DC.IL12 (10^6 cells injected subcutaneously in the left flank on days 7 and 14) pulsed with synthetic TBVA peptides. In some assays, as indicated, in vivo antibody depletions (on days 6, 13 and 20 post-tumor inoculation to assess early involvement or on days 60 and 67 or 180 and 187 to assess late involvement) of protective CD4^+ T cells or CD8^+ T cells were performed and monitored as previously described (Zhao et al., Mol Ther., 19:805-814, 2011). In all cases, tumor size (area) was monitored every 3-4 days and is reported as mean+/−SD in mm^2.
The DLK1, EphA2, HBB, NG2, NRP1, NRP2, PDGFRβ, PSMA, RGS5, TEM1, VEGFR1 and VEGFR2 antigens were expressed in situ by blood vessel cells in the MC38 colon carcinoma TME (FIG. 14). Protection of HHD mice against a challenge with HLA-A2^neg MC38 tumor cells injected subcutaneously on day zero was assayed with immunization with TBVA-derived peptides on days −14 and −7. […]

[2] = system: MC38 tumor microenvironment; assay: Fluorescence imaging of MC38 tumor sections after prophylactic vaccination; assay type: in vivo, HHD mice; conditions: day 14 tumors; p<0.05 vs. untreated or DC.IL12/no peptide
Text: Day 14 MC38 tumors were harvested from HHD mice that had been vaccinated as outlined in FIG. 9B with the indicated peptides (or control PBS or DC.IL12 alone=No peptide). In FIG. 10A, six-micron tissue sections were co-stained with anti-CD8 (green) and anti-NG2 (red) antibodies and imaged by fluorescence microscopy. Blue signal=nuclear counterstain using 4′,6-diamidino-2-phenylindole (DAPI). FIG. 10B provides a summary of the mean+/−SD number of CD8^+ cells per high-power field (HPF) in MC38 tumors isolated from control or vaccinated mice as depicted in FIG. 10A. In FIG. 10C, tissue sections were co-stained with anti-CD31 (green) and anti-NG2 (red) antibodies and imaged by fluorescence microscopy. Blue signal=nuclear counterstain using DAPI. In FIG. 10D, the mean+/−SD number of CD31^+ vessels per HPF of MC38 tumors in control or vaccinated mice are summarized Representative data is depicted from 1 of 3 independent experiments performed. *p<0.05 versus DC only or untreated control mice.
Fluorescence Imaging of Tumor Sections. Tumor tissue samples were prepared and 6 micron sections prepared as previously reported (Komita et al., Cancer Res., 68:8076-8084, 2008). The following Abs were used: (for T cell analyses), rabbit anti-mouse NG2 (Millipore, Bedford, Mass.) and alexa488-conjugated anti-CD4 or -CD8β antibodies or matching isotype controls (all from BD-Biosciences); (for vascular analyses), rat anti-mouse CD31 (BD-Biosciences) and rabbit anti-mouse NG2 (Millipore) Abs; (for TBVA), rat anti-mouse CD31 (BD-Biosciences) and guinea pig anti-mouse NG2 Abs, along with anti-TBVA as described in Example 1. Imaging was performed using an Olympus Fluoview 500 Confocal microscope (Olympus America, Center Valley, Pa.).
Protective vaccines incorporating TBVA peptides promote enhanced infiltration of the TME by CD8^+ T cells in association with an inhibition of tumor vascularity. MC38 tumor lesions from all cohorts of animals with evidence of disease on day 14 (post-tumor inoculation) were isolated and immunofluorescence microscopy on tumor sections was performed. […] In marked contrast, CD4^+ T cell infiltration in the TME was sparse and the data were indistinguishable when comparing control vs. vaccinated mice (FIG. 17). […] Correlative analyses indicated an association between the anti-tumor efficacy of vaccines and their ability to promote CD8^+ T cell infiltration and reduced vascularity in the TME (FIG. 16).

VEGFR2: VEGFR2-derived peptide 773-781 pulsed onto DC or DC.IL12 (VIAMFFWLL; listed as Homo sapiens)
Anti-tumor efficacy in MC38 protection model ([1]; DC.IL12 pulsed with a pool of 1 or more peptides derived from the indicated TBVA, vaccination d-14, d-7): +/- (+/-, p < 0.05 versus DC only for 2 consecutive time points)
Protection against HLA-A2neg MC38 tumor challenge ([1]; immunization days -14 and -7, tumor challenge day 0 (FIG. 9B)): minimal protection
Suppression in CD31+ vessel counts in the MC38 TME [2]: somewhat less pronounced effects
